Test results published in ChEMBL document CHEMBL5620411, “Perspectives and new aspects of histone deacetylase inhibitors in the therapy of CNS diseases” (Eur J Med Chem, 2023).

Experiments:
[1] = Brain to plasma ratio in rat; assay type: ADME; conditions: read-out: BPR
U-87 MG [2] = test: Antiproliferative activity against human U87 cells assessed as reduction in cell growth incubated for 72 hrs by MTT assay; assay type: functional, cell-based, U-87MG ATCC
[3] = Half life in mouse plasma at 1 uM by LC-MS/MS analysis; assay type: ADME, cell-free
[4] = target: Histone deacetylase 4 (Homo sapiens) (UniProt P56524); test: Inhibition of human recombinant HDAC4 (645 to 1057 residues) expressed in Escherichia coli
[5] = target: T1, Protein deacetylase HDAC6 (Homo sapiens, UniProt Q9UBN7); test: Inhibition of N-terminal FLAG-tagged full length human recombinant HDAC6 expressed in baculovirus
T1 sequence (Q9UBN7 whole entry): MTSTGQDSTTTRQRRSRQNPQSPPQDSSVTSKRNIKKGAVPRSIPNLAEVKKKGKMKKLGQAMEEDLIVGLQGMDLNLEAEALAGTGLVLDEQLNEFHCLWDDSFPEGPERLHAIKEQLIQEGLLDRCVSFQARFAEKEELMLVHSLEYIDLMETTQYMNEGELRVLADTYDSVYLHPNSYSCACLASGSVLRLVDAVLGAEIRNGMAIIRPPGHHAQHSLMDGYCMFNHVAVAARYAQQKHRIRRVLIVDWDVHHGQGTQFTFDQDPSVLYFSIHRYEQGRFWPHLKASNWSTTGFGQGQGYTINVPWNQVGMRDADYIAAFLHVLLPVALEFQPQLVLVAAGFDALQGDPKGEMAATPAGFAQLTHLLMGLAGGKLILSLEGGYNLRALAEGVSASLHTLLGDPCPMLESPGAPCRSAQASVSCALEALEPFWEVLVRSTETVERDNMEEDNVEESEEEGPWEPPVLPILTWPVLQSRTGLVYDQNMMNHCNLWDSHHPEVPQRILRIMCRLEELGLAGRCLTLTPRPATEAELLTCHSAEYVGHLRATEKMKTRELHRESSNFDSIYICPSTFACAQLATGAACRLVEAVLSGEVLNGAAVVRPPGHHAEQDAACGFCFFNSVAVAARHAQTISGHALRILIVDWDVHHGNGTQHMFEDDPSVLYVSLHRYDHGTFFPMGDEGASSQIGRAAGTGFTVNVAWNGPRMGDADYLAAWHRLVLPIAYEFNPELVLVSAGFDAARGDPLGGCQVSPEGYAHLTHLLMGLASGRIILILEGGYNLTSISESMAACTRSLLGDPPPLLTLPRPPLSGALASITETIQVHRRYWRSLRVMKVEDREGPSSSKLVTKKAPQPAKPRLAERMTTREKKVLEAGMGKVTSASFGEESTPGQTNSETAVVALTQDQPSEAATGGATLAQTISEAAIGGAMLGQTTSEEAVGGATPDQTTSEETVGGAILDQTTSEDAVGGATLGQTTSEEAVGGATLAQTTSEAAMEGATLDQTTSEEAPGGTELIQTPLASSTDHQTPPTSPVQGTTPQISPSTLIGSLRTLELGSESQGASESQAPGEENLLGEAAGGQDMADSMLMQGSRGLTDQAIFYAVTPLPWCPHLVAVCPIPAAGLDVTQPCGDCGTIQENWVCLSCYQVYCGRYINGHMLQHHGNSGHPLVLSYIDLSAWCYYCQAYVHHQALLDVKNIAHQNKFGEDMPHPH

Histone deacetylase 2 = Histone deacetylase 2 (Homo sapiens, UniProt Q92769); test: Inhibition of C-terminal FLAG-tagged full length human recombinant HDAC2 expressed in Sf9 cells by HTRF method
Histone deacetylase 1 [6] = target: T2, Histone deacetylase 1 (Homo sapiens, UniProt Q13547); test: Inhibition of C-terminal FLAG-tagged human recombinant HDAC1 expressed in baculovirus by HTRF method
Histone deacetylase 8 = target: T3, Histone deacetylase 8 (Homo sapiens, UniProt Q9BY41); test: Inhibition of C-terminal FLAG-tagged full length human recombinant HDAC8 expressed in baculovirus
T3 sequence (Q9BY41 whole entry): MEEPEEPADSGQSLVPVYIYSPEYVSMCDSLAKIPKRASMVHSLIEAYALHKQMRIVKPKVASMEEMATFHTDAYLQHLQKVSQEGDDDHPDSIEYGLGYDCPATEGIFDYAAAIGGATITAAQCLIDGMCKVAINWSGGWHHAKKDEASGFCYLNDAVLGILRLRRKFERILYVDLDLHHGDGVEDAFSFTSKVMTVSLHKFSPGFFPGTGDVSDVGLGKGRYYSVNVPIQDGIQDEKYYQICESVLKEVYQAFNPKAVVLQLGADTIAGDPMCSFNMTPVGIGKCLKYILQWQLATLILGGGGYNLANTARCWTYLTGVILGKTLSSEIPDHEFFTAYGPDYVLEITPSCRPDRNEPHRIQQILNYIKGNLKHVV

U-251 = test: Antiproliferative activity against human U-251 cells assessed as reduction in cell viability incubated for 24 hrs by MTT assay; assay type: functional, cell-based; conditions: U-251, 24 h
Histone deacetylase 1 [7] = target: T2, Histone deacetylase 1; test: Inhibition of HDAC1 (unknown origin)
[8] = Half life in mouse; assay type: ADME, organism-based; conditions: in vivo
U-87 MG [9] = test: Antiproliferative activity against human U87 cells assessed as reduction in cell viability incubated for 72 hrs by MTT assay
[10] = target: T1, Protein deacetylase HDAC6; test: Inhibition of human HDAC6

T2 sequence (Q13547 whole entry): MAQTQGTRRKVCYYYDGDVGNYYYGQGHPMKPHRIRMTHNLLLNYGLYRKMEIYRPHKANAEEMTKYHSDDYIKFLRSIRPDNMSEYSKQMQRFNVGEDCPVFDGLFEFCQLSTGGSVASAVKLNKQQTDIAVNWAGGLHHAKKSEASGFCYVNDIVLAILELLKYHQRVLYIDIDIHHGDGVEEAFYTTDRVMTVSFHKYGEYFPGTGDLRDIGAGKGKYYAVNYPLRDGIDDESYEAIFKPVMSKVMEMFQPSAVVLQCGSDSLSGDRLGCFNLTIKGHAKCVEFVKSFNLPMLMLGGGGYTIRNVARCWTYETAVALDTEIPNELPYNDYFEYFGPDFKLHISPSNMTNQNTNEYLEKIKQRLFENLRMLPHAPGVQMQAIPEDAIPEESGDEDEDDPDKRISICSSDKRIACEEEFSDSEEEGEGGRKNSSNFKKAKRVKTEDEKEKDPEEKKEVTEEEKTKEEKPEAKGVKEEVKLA
Sequence of Histone deacetylase 2 (Q92769 whole entry): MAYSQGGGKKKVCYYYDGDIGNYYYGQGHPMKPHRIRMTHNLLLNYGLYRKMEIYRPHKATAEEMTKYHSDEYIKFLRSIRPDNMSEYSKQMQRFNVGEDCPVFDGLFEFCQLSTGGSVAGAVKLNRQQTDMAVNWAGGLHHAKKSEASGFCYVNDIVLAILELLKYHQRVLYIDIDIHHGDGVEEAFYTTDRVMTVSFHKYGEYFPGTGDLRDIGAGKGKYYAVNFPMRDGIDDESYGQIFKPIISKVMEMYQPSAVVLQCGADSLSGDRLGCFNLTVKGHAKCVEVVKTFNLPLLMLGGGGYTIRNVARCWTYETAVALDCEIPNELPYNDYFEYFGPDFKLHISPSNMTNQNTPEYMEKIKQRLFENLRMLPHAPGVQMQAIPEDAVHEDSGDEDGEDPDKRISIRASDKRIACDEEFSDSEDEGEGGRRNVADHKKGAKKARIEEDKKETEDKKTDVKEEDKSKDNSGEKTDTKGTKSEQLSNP
Sequence of Histone deacetylase 4 (Homo sapiens) (P56524 whole entry, the tested form may be a part): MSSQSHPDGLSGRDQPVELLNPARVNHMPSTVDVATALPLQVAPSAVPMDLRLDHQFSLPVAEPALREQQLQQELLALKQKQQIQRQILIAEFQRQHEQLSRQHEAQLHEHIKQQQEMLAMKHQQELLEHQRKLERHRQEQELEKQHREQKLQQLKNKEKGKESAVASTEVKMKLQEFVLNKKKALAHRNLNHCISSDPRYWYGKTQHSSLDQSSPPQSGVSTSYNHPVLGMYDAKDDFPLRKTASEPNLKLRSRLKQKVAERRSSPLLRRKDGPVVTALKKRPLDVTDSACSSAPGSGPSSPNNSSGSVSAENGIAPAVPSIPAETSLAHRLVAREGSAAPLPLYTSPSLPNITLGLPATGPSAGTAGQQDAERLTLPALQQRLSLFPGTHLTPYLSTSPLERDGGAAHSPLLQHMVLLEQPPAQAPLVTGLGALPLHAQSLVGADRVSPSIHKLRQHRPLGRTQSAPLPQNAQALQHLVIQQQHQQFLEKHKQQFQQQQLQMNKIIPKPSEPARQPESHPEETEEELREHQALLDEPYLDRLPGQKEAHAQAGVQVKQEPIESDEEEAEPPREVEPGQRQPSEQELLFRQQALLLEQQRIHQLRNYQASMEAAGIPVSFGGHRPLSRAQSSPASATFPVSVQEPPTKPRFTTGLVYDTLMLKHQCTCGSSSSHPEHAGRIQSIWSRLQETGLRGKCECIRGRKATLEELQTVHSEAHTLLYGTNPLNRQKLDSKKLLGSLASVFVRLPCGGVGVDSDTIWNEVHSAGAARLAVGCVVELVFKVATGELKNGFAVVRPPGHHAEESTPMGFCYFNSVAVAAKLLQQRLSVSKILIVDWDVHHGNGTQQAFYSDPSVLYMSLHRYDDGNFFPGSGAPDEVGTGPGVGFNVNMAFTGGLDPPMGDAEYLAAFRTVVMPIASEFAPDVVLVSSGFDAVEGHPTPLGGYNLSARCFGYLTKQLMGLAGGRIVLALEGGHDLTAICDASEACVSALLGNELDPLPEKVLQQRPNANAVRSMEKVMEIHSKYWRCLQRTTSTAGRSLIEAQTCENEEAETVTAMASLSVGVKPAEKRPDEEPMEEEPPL

Question: Which Kp [1] does the source give for `O=C(NO)c1ccc(CN2CCCSc3ccccc32)cc1` here?
Answer: Its Kp is 2.3.

Question: For `COc1cc(/C=C/C(=O)CC(=O)/C=C/c2ccc(/C=C/C(=O)NO)cc2)ccc1O`, which IC50 (U-87 MG [2]) is on record?
Answer: The IC50 was 2780 nM.

Question: And the half-life at 1 µM [3]?
Answer: The half-life at 1 µM was 1.53 h.

Question: With `COc1cc(-c2nc(C(=O)NCc3ccc(C(=O)NO)cc3)cc3c2[nH]c2ccccc23)cc(OC)c1OC` as the compound, how does the IC50 [4] read?
Answer: Its IC50 is > 559 nM.

Question: And the IC50 [5]?
Answer: Its IC50 is 3.8 nM.

Question: And the IC50 (Histone deacetylase 2)?
Answer: The IC50 was > 559 nM.

Question: And the IC50 (Histone deacetylase 1 [6])?
Answer: The IC50 was 8.7 nM.

Question: And the IC50 (Histone deacetylase 8)?
Answer: Its IC50 is > 559 nM.

Question: Which IC50 (U-251) does the source give for `O=C(CCCCCCC(=O)Nc1cc(C(F)(F)F)ccc1Cl)NO` here?
Answer: Its IC50 is 890 nM.

Question: What about the IC50 (Histone deacetylase 1 [7]) of the same compound?
Answer: Its IC50 is 120 nM.

Question: Which t1/2 [8] does the source give for `COc1cc(/C=C/C(=O)CC(=O)/C=C/c2ccc(O)c(OC)c2)ccc1O` [CURCUMIN] here?
Answer: The t1/2 was 0.287 h.

Question: What about the IC50 (U-87 MG [9]) of the same compound?
Answer: Its IC50 is 31900 nM.

Question: Which Kp [1] does the source give for `CN1CCC2c3ccccc3N(Cc3ccc(C(=O)NO)cc3)C2C1` (centres undefined) here?
Answer: The Kp was 0.18.

Question: What about the IC50 [10] of the same compound?
Answer: The IC50 was 15 nM.
